This passage reports Ki results from patent US8440654B2, “Thieno- and furo-pyrimidine modulators of the histamine H4 receptor” (Janssen Pharmaceutica NV, priority 2007, dated 2013).

Counter-ions that a name gives are not always drawn.

The target in the experiment is T1, human histamine H4 receptor (Homo sapiens, UniProt Q9H3N8).
T1 construct: expressed in transfected cells; host or cells: SK-N-MC cells or COS7 cells, transiently transfected with pH4R; membrane preparation
In words: Binding Assay on Recombinant Human Histamine H4 Receptor. The note with it: competition binding with 3H-histamine, membranes of SK-N-MC or COS7 cells transfected with human H4R; average of results obtained.

T1 sequence (Q9H3N8 whole entry): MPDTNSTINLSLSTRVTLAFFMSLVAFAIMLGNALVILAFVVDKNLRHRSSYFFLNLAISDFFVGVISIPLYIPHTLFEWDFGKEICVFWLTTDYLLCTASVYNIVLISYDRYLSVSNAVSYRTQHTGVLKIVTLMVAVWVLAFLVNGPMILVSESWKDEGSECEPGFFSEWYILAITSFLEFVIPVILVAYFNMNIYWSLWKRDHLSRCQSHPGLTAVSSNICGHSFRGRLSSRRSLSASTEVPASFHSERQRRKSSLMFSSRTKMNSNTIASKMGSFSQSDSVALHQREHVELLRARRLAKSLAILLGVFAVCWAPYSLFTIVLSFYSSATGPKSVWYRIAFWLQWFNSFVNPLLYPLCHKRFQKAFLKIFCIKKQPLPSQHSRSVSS

As for “4-[(1S,4S)-2,5-Diazabi- cyclo]2.2.1-2-yl]hept-2-yl]- 6,7,8,9-tetrahydro[1]benzo- thieno[3,2-d]pyrimidin-2- amine [Example 35]”, the Ki (in general, a measure of affinity in units of concentration, obtained from inhibition or displacement) came out at 417 nM.

As for `c1nc(N2CCNCC2)c2oc3c(c2n1)CCCC3` [Example 9, 4-piperazin-1-yl-6,7,8,9-tetrahydro-benzo[4,5]furo[3,2-d]pyrimidine], the Ki worked out at 110 nM.

Consider `Nc1nc(N2CCCNCC2)c2oc3c(c2n1)CCCC3` [Example 22, 4-(1,4-Diazepan-1-yl)-6,7,8,9-tetrahydro[1]benzo-furo[3,2-d]pyrimidin-2-amine trifluoroacetic acid salt], for which the inhibition constant (Ki) is 3 nM.
